| melting point [°C] | Structure (SMILES) |
| --- | --- |
| 115 to 116 | O=C(O)CCc1cc(OCC2CC2)nn1Cc1ccc(C(F)(F)F)cc1Cl |
| 151 to 152 | CN(C)Cc1ccc(CSCCNC2=NS(=O)(=O)N=C2N2CCCC2)o1 |
| 67 to 69 | CCOC(=O)C1CCc2c(c3ccccc3n2C(=O)c2ccccc2)C1 (centres undefined) |
| 168 to 184 | CCOc1ccccc1-c1ncc(C(=O)O)c(=O)[nH]1 |
| 166 to 167 | NC(=O)c1ccccc1Sc1ccccc1[N+](=O)[O-] |
| 134 to 138 | COc1ccc(CNc2nc(Cl)ccc2C=O)cc1Cl |
| 141 | CCC1=NNC(C)=C(C(=O)OCCOC)C1c1cccc([N+](=O)[O-])c1 (centres undefined) |
| 208 to 210 | CC(C)(C)OC(=O)N1CCn2c(Cl)c(-c3cccc(C#N)c3)c(C(=O)O)c2C1 |
| 114 to 116 | CCCN(CCC)S(=O)(=O)c1cc(-c2csc(=Nc3ccccc3C)n2C)ccc1Cl |
| 69 to 70 | CC(C)(O)C#Cc1nccs1 |
| 140 | COc1cccc(-c2ncc(C(=O)N(C)Cc3cccc(O)c3)s2)c1F |
| 128 to 130 | CCCCCCCCC=CCCCCCCCCCCCC(=O)NC(=O)CN |
| 124 to 127 | COc1ccc(N(C(=O)F)C(=O)Cl)cc1Cl |
| 294 to 297 | O=c1[nH]ncc2[nH]c(-c3ccc(OC(F)F)c(OC4CC4)c3)c(-c3cn[nH]c3)c12 |
| 214 to 216 | Cc1ccc(S(=O)(=O)C=CC#N)cc1NS(=O)(=O)c1ccc2ccccc2c1 |
| 48 to 50 | C[Si]1(C)CCCCCC[Si](C)(C)O[Si](C)(C)CCCCCC[Si](C)(C)O1 |
| 136 to 138 | COc1cccc(C=CC(=O)C(=O)O)c1OC |

| melting point [°C] | Structure (SMILES) |
| --- | --- |
| 59 to 60 | NC(=O)CC(O)COC(c1ccccc1)(c1ccccc1)c1ccccc1 (centres undefined) |
| 108 to 110 | CCOc1ccc(S(=O)(=O)Cl)cc1C(=O)O |
| 50 to 51 | CCOC(=O)CCC(=O)OCC(=O)c1ccc(Cl)cc1 |
| 204 to 205 | O=c1ccn(-c2cccc(C(F)(F)F)c2)nc1-n1ccnc1-c1ccccc1 |
| 77 to 78 | Nc1ncc(CCC2CCCC2)s1 |
| 250 to 251 | CCN1C(=O)C(NC(=O)C(F)(F)F)CCc2c1ccc(Nc1ncc(Cl)c(Nc3ccccc3S(=O)(=O)N(C)C)n1)c2OC (centres undefined) |
| 216 to 218 | O=C(c1ccccn1)c1cnn2c(-c3cccnc3)ccnc12 |
| 154 to 156 | O=C(N[C@H](Cc1ccccc1)C(=O)O)OCc1cc2cc(-c3ccccc3)ccc2o1 |
| 98 to 102 | CC(C)(C)[C@@H]1CCc2nc3sc(C(=O)N[C@H](CN)c4cccc(NC(=O)c5ccno5)c4)cc3cc2C1 |
| 172 to 175 | Nc1ccccc1C(=O)Nc1cccnc1Cl |
| 262 | O=c1oc2ccccc2c(O)c1-c1ccc(Cl)c(Cl)c1 |
| 177 to 179 | CCCS(=O)(=O)Cc1cccc(-c2nc(=O)c3ccccc3s2)n1 |
| 220 to 222 | C#CCn1cnc2c(N)nc3ccccc3c21 |
| 110 to 112 | CCOc1nc(NCc2ccco2)nc(Nc2ccc3[nH]cnc3c2)n1 |
| 206 to 208 | O=C(NCC1CCCCC1)c1c(Cl)ccc2nc(N3CC(O)C3)ccc12 |
| 115 | COC(=O)CCCc1cc2cc(C(F)(F)F)ccc2[nH]1 |

Further lines, the compound ahead of its results:

| Structure (SMILES) | melting point [°C] |
| --- | --- |
| O=C(O)CNc1ccco1 | 195 to 199 |
| Cc1ccccc1C(=O)c1ccccc1C | 66 to 67 |
| CC(C)n1nc(-c2nc(S(C)(=O)=O)c(N)nc2-c2ccccc2)ccc1=O | 249 to 251 |
| O=C(O)Cn1cccc1Sc1ccccc1 | 101 to 102 |
| O=C(c1ccccc1)C1(c2ccccc2)COCO1 (centres undefined) | 66 to 66.5 |
| COc1cc2c(cc1Cl)CC(C)OC2c1ccc([N+](=O)[O-])cc1 (centres undefined) | 118 to 120 |
| CCN(CC)c1nc(C)nc(SC)c1NC(=O)CBr | 173 to 174 |
| CCCOc1cc([N+](=O)[O-])ccc1[N+](=O)[O-] | 52 to 54 |
| CC(=O)OCC(=O)C1=CCC2C3CCC4=CC(=O)CCC4(C)C34OC4CC12C (centres undefined) | 129 to 130 |
| COC(=O)c1cc2cc([N+](=O)[O-])c(OCc3ccccc3)cc2[nH]1 | 184 to 187 |
| CC(C)(C)OC(=O)N1CCCC[C@@H]1[C@H](CO)c1ccc(Br)cc1 | 117 to 118 |
| Cc1cc(CCCCCSc2ccc(C3=NCCO3)cc2)on1 | 89 to 91 |
| Cc1cc([N+](=O)[O-])c(NCC(C)O)c([N+](=O)[O-])c1 (centres undefined) | 80 |
| CCc1nc2c(-c3c(C)cc(C)cc3C)ncnc2n1Cc1ccccc1 | 121 to 122 |
| Cn1nc(C(=O)OCC23CCCN(CC2)C3)c2ccccc21 (centres undefined) | 93 to 95 |
| c1ccc(OCCCN2CCC(CNc3nc4ccccc4s3)CC2)cc1 | 114 |
| O=C1COCCN1c1ccc(N2C[C@@H](CCl)OC2=O)cc1 | 143 to 146 |
| c1cn2nc(N3CCCCC3)c3c(c2n1)CCCC3 | 95 |
| COC(=O)C1=C(O)c2cc(OC)ccc2S(=O)(=O)N1 | 183 |
| CS(=O)(=O)c1cnc(Cl)c(I)c1 | 178 to 180 |
| NC(=O)c1cccc(N2CCN(C(=O)c3c(-c4ccccc4)ccn3CC(=O)O)CC2)c1 | 132 |
| CCCCCCCCOc1cc(O)c2c(=O)c3ccccc3oc2c1 | 98 |

| Structure (SMILES) | melting point [°C] |
| --- | --- |
| CCn1c(N)c(C(N)=O)c(=O)c2cnc(Nc3ccc(O)cc3)nc21 | > 260 |
| CCCCc1nc(SC)c(C(=O)OCC)n1Cc1ccc(-c2ccc(S(=O)(=O)NC#N)cc2C)cc1 | 211 |
| Clc1ccc(C2(CBr)OCC(COc3ccc(Cl)c4ccccc34)O2)c(Cl)c1 (centres undefined) | 123 |
| O=C(O)CCCCNS(=O)(=O)c1ccc(N2CCCCCC2)cc1 | 135 to 140 |
| COc1ccc(CNCC(O)COc2cccc3[nH]c4ccccc4c23)c(OC)c1 (centres undefined) | 152 to 154 |
| Oc1ccc(Cl)c(-n2ccnc2)c1 | 204 to 205 |
| COc1ccc(S(=O)(=O)N2C(=O)C(O)(c3ccccc3OC)c3cc(Cl)c(C)cc32)c(OC)c1 (centres undefined) | 207 to 208 |
| COc1cc2c(cc1O)CC(C)(C)N(Cc1cc(OC)c(OC)c(OC)c1)C2 | 143 to 147 |
| COc1cc(C=CC(=O)Nc2cnc3c(C)cc(C)cc3c2-c2ccccc2Cl)cc(OC)c1OC(C)=O | 152 to 154 |
| Cc1ccc(NC(=O)c2cccc(C(F)(F)F)c2)cc1Br | 153 to 155 |
| NCC(c1ccc(F)cc1)C1CCCCC1O (mixture of isomers) | 75 to 76 |
| c1cnc2c(c1)-c1nc(NC3CCNCC3)ncc1-c1ccncc1N2 | 189 to 191 |
| CCc1c(C2=NN=C(C)Cc3cc4[nH]c(=O)oc4cc32)sc2cccc(F)c12 | 297 to 299 |
| NC(=O)CCc1ccc(-c2nc(=O)c3ccccc3s2)nc1 | 248 |
| COc1cc2c(cc1OC)CN(CCCCOc1ccc(NC(=O)c3nccc4ccccc34)cc1)CC2 | 122 to 123 |
| CCCCOC(=O)[C@H]1CN(c2ccc(N3CCSCC3)c(F)c2)C(=O)O1 | 128 to 130 |
| CCOc1cc(N)c(Cl)cc1C(=O)NCC1CN(Cc2ccccc2Cl)C(C)(C)CO1 (centres undefined) | 181 to 184 |
| COc1cc(CCCC2SC(=O)NC2=O)cc(OC)c1OCc1coc(/C=C/c2ccccc2)n1 (centres undefined) | 163 to 164 |
| O=C(c1ccccc1)N1CCN(c2c(Cl)cncc2Cl)CC1 | 132 to 134 |
| Cc1cc(-c2cc(C(F)(F)F)n3ncc(C(=O)Nc4cccc(S(N)(=O)=O)c4)c3n2)ccc1C(F)(F)F | 245 |
| N#Cc1c(SC(F)(F)F)c(NC(=O)C(F)(F)F)n(-c2c(Cl)cc(C(F)(F)F)cc2Cl)c1Cl | 190 |
| O=C(O)c1ccc(Br)c(CN2CCC(c3cn(Cc4ccncc4)c4ccccc34)CC2)c1 | 167 to 168 |

| Structure (SMILES) | melting point [°C] |
| --- | --- |
| COc1ccc(Cl)cc1-c1c(N)c(=O)[nH]c2cc(C(F)(F)F)cc(C(F)(F)F)c12 | 265 to 267 |
| CS(=O)(=O)c1c(C(=O)NN=Cc2cccc3ccccc23)[nH]c2ccccc12 | > 250 |
| CCCCN(C(=O)CCCCC(=O)N(CCCC)C1CC(C)(C)NC(C)(C)C1)C1CC(C)(C)NC(C)(C)C1 | 134 to 144 |
| O=C(Nc1ccc(Oc2c(Cl)cc(C(F)(F)F)c(Cl)c2Cl)cc1Cl)Nc1nonc1-c1ccccc1 | 209 |
| CCn1c2ccc(C)cc2c(=O)c2c1cnn2C | > 300 |
| CCc1nn(C[C@@H]2CCCN2C)c(C(N)=O)c1[N+](=O)[O-] | 148 to 150 |
| CCCCCCCCCCc1ccc(C(N)(CO)CO)cc1 | 136 to 137 |
| CS(=O)c1ncc2cc(Cl)c(N)nc2n1 (centres undefined) | 260 to 262 |
| CC(=O)N(C)c1nc(C)co1 | 27 to 29 |
| CN(C)c1ccc(C2OC(C)(C)N=C2c2ccccc2)cc1 (centres undefined) | 123 |
| CCC(C)(CC)C(=O)O[C@H]1C[C@H](O)C=C2C=C[C@H](C)[C@H](CC[C@@H]3C[C@@H](O)CC(=O)O3)[C@H]21 | 152 to 154 |
| CCCCC(=O)N[C@@H]1CN2C(=O)N(c3cc(Cl)nc(Cl)c3)C(=O)[C@@]2(Cc2ccc(OC(F)(F)F)cc2)C1 | 66.8 |
| CCCCC(=O)N1CCN(C(=O)Nc2ccccc2CCc2cc(C(C)(C)C)c(O)c(C(C)(C)C)c2)CC1 | 126 to 128 |
| COC(=O)c1ccc2nc(C(C)C)c(C(C)C)nc2c1 | 53 to 55 |
| COC(=O)C(C)(C)Cc1c(SC(C)(C)C)c2cc(OCc3ccc4cc(F)ccc4n3)ccc2n1Cc1ccc(Cl)cc1 | 165 to 167 |
| CCOCC(COCC)Oc1ccc(/C=C/C(=O)OCC)c(Oc2ncc(C(F)(F)F)cc2Cl)c1 | 66 to 67.5 |
| CCCCC(=O)N[C@H]1CC[C@H](CCN2CCC(c3cccc4c3CCO4)CC2)CC1 | 186 |
| CCCCCCCCCCC(O)C1CCC(C2CCC(C(O)CCCCCCCCCC(O)CC3=CC(C)OC3=O)O2)O1 (centres undefined) | 69 to 70 |
| O=C1CC[C@H]2N1CCN1C(=O)C[C@H]3CCCC[C@@]321 (relative stereo) | 135 to 136 |
| O=C(c1cccc2nc3n(c12)CCCN3c1ccc(Cl)cc1Cl)N1CC(O)C1 | 257 to 258 |
| NC(=O)c1ccc(OCCn2ccnc2)cc1 | 148 to 149 |
| N=C(N)N(C[C@H]1CC[C@H](C(=O)Nc2ccnc3[nH]ccc23)CC1)C(=O)OCc1ccccc1 | 160 to 162 |

From a melting point compilation (Tetko et al.; mined from patent text by program, amines drawn as free bases though some values may be those of a salt)
